Patent publication US20070167492A1, “Molluscicidal agents” (priority 2003, published 2007)

Experiments:
[1] = tested on: Winter wheat (Kampa race) seeds; test: Seed germination test of treated winter wheat seeds (rolled in paper); type: in vivo; details: 3x50 seeds, 6 days at 22° C.
Outline: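 Seeds were disinfected with fludioxonil-containing Beret Gold (2 ml per kg seed) and coated with Sepiret® for formulations unsuitable for coating. Germination of 3×50 seeds rolled in paper was scored after 6 days at continuous 22° C. under a 16 hours light regime.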

[2] = Example 1: pot test, treated winter wheat seed with 5 adult slugs per pot, 14 days; type: in vivo, Deroceras reticulatum; details: Example 1; winter wheat seed treatment
Outline: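 Fludioxonil-disinfected winter wheat seed (Kampa, 40 per pot) sown on quartz sand over potting soil with 5 adult slugs per pot; ±15° C., ±90% RH, 12 h light/12 h dark, 4 replicates. Damaged seeds, plants, dead slugs and fecal pellets counted up to day 14; F-tests and Student-tests.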

SMILES | Percentage germinated ([1]; 2 ml formulated per kg seed) | Percentage germinated ([1]; 4 ml formulated per kg seed) | Percentage germinated ([1]; 8 ml formulated per kg seed) | Percentage germinated ([1]; 12 ml formulated per kg seed) | Percentage germinated ([1]; 10 ml formulated per kg seed) | phytotoxicity [2] | Percentage germinated ([1]; 3.8 ml formulated per kg seed) | Percentage germinated ([1]; 7.5 ml formulated per kg seed) | Percentage germinated ([1]; 11 ml formulated per kg seed) | Percentage germinated ([1]; 15 ml formulated per kg seed)
O=[N+]([O-])NC1=NCCN1Cc1ccc(Cl)nc1 [imidacloprid] | 78% | 89% | 71% | 77% | – | – | – | – | – | –
O=CC=Cc1ccccc1 [cinnamaldehyde] | 25% | 0% | – | – | 0% | phytotoxic | – | – | – | –
CC1OC(C)OC(C)OC(C)O1 (stereo not drawn) [metaldehyde] | – | – | – | – | – | – | 56% | 31% | 48% | 8%
